Tests used:
Conditions in all cases: exposure time: 72 h
[1] = test system: E21 (patient-derived glioblastoma stem cells of mesenchymal subtype); assay: surviving fraction (nuclei count normalised to DMSO); higher = more cells surviving (less toxic)
[2] = test system: FT3469 (normal neural stem cell line); assay: as above
[3] = test system: E34 (patient-derived glioblastoma stem cells of proneural subtype); assay: as above
[4] = test system: E28 (patient-derived glioblastoma stem cells of classical subtype); assay: as above
[5] = test system: E13 (patient-derived glioblastoma stem cells of classical subtype); assay: as above
[6] = test system: E57 (patient-derived glioblastoma stem cells of mesenchymal subtype); assay: as above
[7] = test system: E21; assay: phenotypic distance (Euclidean, principal components) from DMSO controls (arbitrary units); higher = stronger morphological change
[8] = test system: FT3469; assay: as above
[9] = test system: E34; assay: as above
[10] = test system: E28; assay: as above
[11] = test system: E13; assay: as above
[12] = test system: E57; assay: as above
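Wherever phenotypic distance (Euclidean, principal components) from DMSO controls is given: cell Painting imaging in 384-well plates, CellProfiler features reduced to at least 20 principal components, Euclidean distance versus same-plate DMSO vehicle wells (0.1% v/v), median over six images per well.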
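Wherever surviving fraction (nuclei count normalised to DMSO) is given: nuclei counted by high-content imaging of Hoechst-stained cells in laminin-coated 384-well plates, relative to 0.1% DMSO vehicle wells, with staurosporine as cell-death control.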

CCn1c(-c2nonc2N)nc2cnc(Oc3cccc(NC(=O)c4ccc(OCCN5CCOCC5)cc4)c3)cc21
Conditions	phenotypic distance	surviving fraction
[1], 4.1 nM	–	0.933
[1], 12.3 nM	–	0.948
[1], 37 nM	–	0.974
[1], 111.1 nM	–	0.925
[1], 333.3 nM	–	0.898
[1], 1000 nM	–	0.613
[1], 3000 nM	–	0.448
[2], 4.1 nM	–	1.18
[2], 12.3 nM	–	1.18
[2], 37 nM	–	1.12
[2], 111.1 nM	–	1.055
[2], 333.3 nM	–	1.06
[2], 1000 nM	–	0.911
[2], 3000 nM	–	0.766
[3], 4.1 nM	–	1.12
[3], 12.3 nM	–	1.14
[3], 37 nM	–	1.176
[3], 111.1 nM	–	0.989
[3], 333.3 nM	–	1.02
[3], 1000 nM	–	0.887
[3], 3000 nM	–	0.746
[4], 4.1 nM	–	0.9684
[4], 12.3 nM	–	0.977
[4], 37 nM	–	1.02
[4], 111.1 nM	–	0.996
[4], 333.3 nM	–	0.909
[4], 1000 nM	–	0.619
[4], 3000 nM	–	0.5398
[5], 4.1 nM	–	0.992
[5], 12.3 nM	–	0.995
[5], 37 nM	–	0.9924
[5], 111.1 nM	–	1.0033
[5], 333.3 nM	–	1.03
[5], 1000 nM	–	0.729
[5], 3000 nM	–	0.633
[6], 4.1 nM	–	1.06
[6], 12.3 nM	–	1.01
[6], 37 nM	–	1.01
[6], 111.1 nM	–	0.996
[6], 333.3 nM	–	0.86
[6], 1000 nM	–	0.645
[6], 3000 nM	–	0.486
[7], 4.1 nM	1.88	–
[7], 12.3 nM	2.27	–
[7], 37 nM	2.12	–
[7], 111.1 nM	2.01	–
[7], 333.3 nM	1.94	–
[7], 1000 nM	2.16	–
[7], 3000 nM	2.66	–
[8], 4.1 nM	2.61	–
[8], 12.3 nM	1.73	–
[8], 37 nM	1.75	–
[8], 111.1 nM	1.587	–
[8], 333.3 nM	1.48	–
[8], 1000 nM	1.9	–
[8], 3000 nM	3.17	–
[9], 4.1 nM	1.73	–
[9], 12.3 nM	1.69	–
[9], 37 nM	2.04	–
[9], 111.1 nM	1.79	–
[9], 333.3 nM	1.73	–
[9], 1000 nM	1.67	–
[9], 3000 nM	2.39	–
[10], 4.1 nM	2.14	–
[10], 12.3 nM	2.12	–
[10], 37 nM	2.16	–
[10], 111.1 nM	2.28	–
[10], 333.3 nM	2.41	–
[10], 1000 nM	3.356	–
[10], 3000 nM	3.1	–
[11], 4.1 nM	2.07	–
[11], 12.3 nM	2.22	–
[11], 37 nM	2.86	–
[11], 111.1 nM	2.12	–
[11], 333.3 nM	2.126	–
[11], 1000 nM	2.51	–
[11], 3000 nM	3.08	–
[12], 4.1 nM	0.962	–
[12], 12.3 nM	1.68	–
[12], 37 nM	0.775	–
[12], 111.1 nM	0.817	–
[12], 333.3 nM	1.73	–
[12], 1000 nM	2.26	–
[12], 3000 nM	3.68	–
